The values below come from ChEMBL document CHEMBL3044732, “Pyrazolecarboxylic acid derivative induces systemic acquired resistance in tobacco” (2003).

Experiment [1] relates to Nicotiana tabacum. Nature of the experiment: Induction of systemic acquired resistance against Oidium in Nicotiana tabacum cv. Xanthi nc (tobacco) assessed as decrease in lesion size applied as soil-drench 5 days prior to infection measured after 5 days. It counts as functional, organism-based.
The subject of experiment [2] is Nicotiana tabacum. The experiment in a line: Induction of N-gene mediated systemic acquired resistance against TMV in Nicotiana tabacum cv. Xanthi nc (tobacco) assessed as decrease in lesion size at 0.1 mg/pot applied by soil-drench 5 days prior to infection measured after 5 days relative to control. It counts as functional, organism-based.
Experiment [3] has as its system Pseudomonas amygdali pv. tabaci. The experiment in a line: Antibacterial activity against Pseudomonas syringae pv. tabaci up to 500 ug/ml. It counts as functional, organism-based.
The subject of experiment [4] is Nicotiana tabacum. The experiment in a line: Induction of systemic acquired resistance against Pseudomonas syringae pv. tabaci in Nicotiana tabacum cv. Xanthi nc (tobacco) assessed as decrease in Nicotiana tabacum (tobacco) wildfire disease symptoms at 1 to 2 mg/pot applied as soil-drench 5 days prior to infection measured after 3 days relative to control. It counts as functional, organism-based.

The subject of experiment [5] is Nicotiana tabacum. Nature of the experiment: Induction of N-gene mediated systemic acquired resistance against TMV in Nicotiana tabacum cv. Xanthi nc (tobacco) assessed as lesion size at 0.1 mg/pot applied by soil-drench 5 days prior to infection measured after 5 days relative to control. It counts as functional.
Experiment [6] has as its system Nicotiana tabacum. Nature of the experiment: Induction of systemic acquired resistance against Pseudomonas syringae pv. tabaci in Nicotiana tabacum cv. Xanthi nc (tobacco) assessed as inhibition of bacterial growth in infected tissues at 1 to 2 mg/pot applied as soil-drench 5 days prior to infection measured after 3 days relative to control. It counts as functional, organism-based.

Experiment [7] relates to Nicotiana tabacum. Nature of the experiment: Induction of N-gene mediated systemic acquired resistance against TMV in Nicotiana tabacum cv. Xanthi nc (tobacco) assessed as lesion size at 10 mg/pot applied by soil-drench 5 days prior to infection measured after 5 days relative to control. It counts as functional.
In experiment [8] the test system is Nicotiana tabacum. Nature of the experiment: Induction of N-gene mediated systemic acquired resistance against TMV in Nicotiana tabacum cv. Xanthi nc (tobacco) assessed as lesion size at 1 mg/pot applied by soil-drench 5 days prior to infection measured after 5 days relative to control. It counts as functional.
The subject of experiment [9] is Nicotiana tabacum. The experiment in a line: Induction of systemic acquired resistance in Nicotiana tabacum cv. Xanthi nc (tobacco) assessed as effect on total salicylic acid level in leaves at 1 mg/pot applied as soil-drench measured up to 7 days by fluorometric analysis relative to control. It counts as functional, organism-based.
Experiment [10] has as its system Nicotiana tabacum. Nature of the experiment: Induction of systemic acquired resistance in Nicotiana tabacum cv. Xanthi nc (tobacco) assessed as effect on free salicylic acid level in leaves at 1 mg/pot applied as soil-drench measured up to 7 days by fluorometric analysis relative to control. It counts as functional, organism-based.
The test system of experiment [11] is Nicotiana tabacum. The experiment in a line: Induction of systemic acquired resistance in transgenic Nicotiana tabacum cv. Xanthi nc (tobacco) expressing bacterial NahG assessed as increase in PR1 mRNA level at 0.01 to 0.5 mg/ml applied as foliar spray measured after 4 days by Northern blot analysis relative to control. It counts as functional, organism-based.

The subject of experiment [12] is Nicotiana tabacum. The experiment in a line: Induction of systemic acquired resistance in transgenic Nicotiana tabacum cv. Xanthi nc (tobacco) expressing bacterial NahG assessed as increase in PR1 mRNA level at 1 to 2 mg/pot applied as soil-drench measured after 4 days by Northern blot analysis relative to control. It counts as functional, organism-based.
The subject of experiment [13] is Nicotiana tabacum. The experiment in a line: Induction of systemic acquired resistance against Pseudomonas syringae pv. tabaci in transgenic Nicotiana tabacum cv. Xanthi nc (tobacco) expressing bacterial NahG assessed as inhibition of bacterial growth in infected tissues at 1 to 2 mg/pot applied as soil-drench 5 days prior to infection measured after 3 days relative to control. It counts as functional, organism-based.

The subject of experiment [14] is Nicotiana tabacum. The experiment in a line: Induction of N-gene mediated systemic acquired resistance against TMV in transgenic Nicotiana tabacum cv. Xanthi nc (tobacco) expressing bacterial NahG assessed as decrease in lesion size at 0.1 to 2 mg/pot applied by soil-drench 5 days prior to infection measured after 5 days relative to control. It counts as functional, organism-based.

Experiment [15] has as its system Nicotiana tabacum. The experiment in a line: Induction of systemic acquired resistance in Nicotiana tabacum cv. Xanthi nc (tobacco) assessed as increase in PR5 mRNA level at 0.01 to 0.5 mg/ml applied as foliar spray measured after 4 days by Northern blot analysis relative to control. It counts as functional, organism-based.
The subject of experiment [16] is Nicotiana tabacum. The experiment in a line: Induction of systemic acquired resistance in Nicotiana tabacum cv. Xanthi nc (tobacco) assessed as increase in PR2 mRNA level at 0.01 to 0.5 mg/ml applied as foliar spray measured after 4 days by Northern blot analysis relative to control. It counts as functional, organism-based.
Experiment [17] deals with Nicotiana tabacum. The experiment in a line: Induction of systemic acquired resistance in Nicotiana tabacum cv. Xanthi nc (tobacco) assessed as increase in PR1 mRNA level at 0.01 to 0.5 mg/ml applied as foliar spray measured after 4 days by Northern blot analysis relative to control. It counts as functional, organism-based.
Experiment [18] has as its system Nicotiana tabacum. The experiment in a line: Induction of systemic acquired resistance in Nicotiana tabacum cv. Xanthi nc (tobacco) assessed as increase in PR1 mRNA level at 1 mg/pot applied as soil-drench measured after 24 hr by Northern blot analysis relative to control. It counts as functional, organism-based.
Experiment [19] has as its system Nicotiana tabacum. Nature of the experiment: Induction of systemic acquired resistance in Nicotiana tabacum cv. Xanthi nc (tobacco) assessed as increase in PR5 mRNA level at 1 to 2 mg/pot applied as soil-drench measured after 4 days by Northern blot analysis relative to control. It counts as functional, organism-based.
The subject of experiment [20] is Nicotiana tabacum. Nature of the experiment: Induction of systemic acquired resistance in Nicotiana tabacum cv. Xanthi nc (tobacco) assessed as increase in PR2 mRNA level at 1 to 2 mg/pot applied as soil-drench measured after 4 days by Northern blot analysis relative to control. It counts as functional, organism-based.
For experiment [21], the system named is Nicotiana tabacum. Nature of the experiment: Induction of systemic acquired resistance in Nicotiana tabacum cv. Xanthi nc (tobacco) assessed as increase in PR1 mRNA level at 1 to 2 mg/pot applied as soil-drench measured after 4 days by Northern blot analysis relative to control. It counts as functional, organism-based.

Each structure is given as a SMILES string. Activity calls are given as the source filed them. No cut-off for these calls is given here. Bounds are passed on as bounds.

Take `CSC(=O)c1cccc2nnsc12`: the Activity result with Nicotiana tabacum [1] was “Dose-dependent effect”. Moreover, the outcome with Nicotiana tabacum [2] was Active.
`Cn1nc(Cl)cc1C(=O)O` [3-CHLORO-1-METHYL-1H-PYRAZOLE-5-CARBOXYLIC ACID]: the Activity result is “Dose-dependent effect” with Nicotiana tabacum [1], 50% in the experiment on Nicotiana tabacum [5], less than 10% in the experiment with Nicotiana tabacum [7] and less than 10% with Nicotiana tabacum [8]. Also, the outcome (in experiment [3]; in the experiment with Nicotiana tabacum [9]; in the experiment with Nicotiana tabacum [10]) was inactive. Also, the outcome in the experiment on Nicotiana tabacum [4], in the experiment with Nicotiana tabacum [6], in the experiment on Nicotiana tabacum [11], with Nicotiana tabacum [12], in the experiment on Nicotiana tabacum [13] and with Nicotiana tabacum [14] was Active. Also, the result in the experiment with Nicotiana tabacum [15], with Nicotiana tabacum [16], in the experiment with Nicotiana tabacum [17], in the experiment with Nicotiana tabacum [18], in the experiment with Nicotiana tabacum [19] and in the experiment with Nicotiana tabacum [20] was Active. In addition, the outcome in the experiment with Nicotiana tabacum [21] was Active.
